Experimental data from PubChem BioAssay AID1845217 (Molecular Pharmacology Branch, DTP, NCI, 2023).

System: VA-ES-BJ tumor spheroid viability
Assay: Anticancer human tumor VA-ES-BJ cell line growth inhibition;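 further: spheroids exposed to compounds for seven days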;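 on viability, T/C: percent of DMSO vehicle control viability so 100% = untreated growth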
Settings: spheroids with HUVEC and MSC; for IC50: curve of first compound; for viability, T/C: stronger effect = lower value
Procedure, shortened: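 Single agents and combinations were tested on spheroids built from tumor cells plus HUVEC and hMSC, at half-log dilutions starting at or near clinical Cmax, else 10 microM; final DMSO 0.25% (v/v).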

SMILES: Cc1sc2c(c1C)C(c1ccc(Cl)cc1)=NC(CC(=O)Nc1ccc(O)cc1)c1nnc(C)n1-2 (stereo not given) + CC[C@@]1(O)C(=O)OCc2c1cc1n(c2=O)Cc2cc3c(CN(C)C)c(O)ccc3nc2-1
- IC50 (second compound 0.003 µM): 101 nM
- IC50 (second compound 0.00949 µM): 45.4 nM
- IC50 (second compound 0.03 µM): < 9.49 nM
- IC50 (second compound 0.0949 µM): < 9.49 nM
- IC50 (second compound 0.3 µM): < 9.49 nM
- viability, T/C (second compound 0.003 µM, first compound 0.00949 µM): 78.5%
- viability, T/C (second compound 0.003 µM, first compound 0.03 µM): 75.2%
- viability, T/C (second compound 0.003 µM, first compound 0.0949 µM): 47%
- viability, T/C (second compound 0.003 µM, first compound 0.3 µM): 34.7%
- viability, T/C (second compound 0.003 µM, first compound 0.949 µM): 23.3%
- viability, T/C (second compound 0.003 µM, first compound 3 µM): 19%
- viability, T/C (second compound 0.00949 µM, first compound 0.00949 µM): 66.1%
- viability, T/C (second compound 0.00949 µM, first compound 0.03 µM): 55.6%
- viability, T/C (second compound 0.00949 µM, first compound 0.0949 µM): 40.1%
- viability, T/C (second compound 0.00949 µM, first compound 0.3 µM): 28.6%
- viability, T/C (second compound 0.00949 µM, first compound 0.949 µM): 18.4%
- viability, T/C (second compound 0.00949 µM, first compound 3 µM): 13.5%
- viability, T/C (second compound 0.03 µM, first compound 0.00949 µM): 30.7%
- viability, T/C (second compound 0.03 µM, first compound 0.03 µM): 33.7%
- viability, T/C (second compound 0.03 µM, first compound 0.0949 µM): 23.1%
- viability, T/C (second compound 0.03 µM, first compound 0.3 µM): 13.3%
- viability, T/C (second compound 0.03 µM, first compound 0.949 µM): 5.6%
- viability, T/C (second compound 0.03 µM, first compound 3 µM): 5.34%
- viability, T/C (second compound 0.0949 µM, first compound 0.00949 µM): 5.99%
- viability, T/C (second compound 0.0949 µM, first compound 0.03 µM): 5.36%
- viability, T/C (second compound 0.0949 µM, first compound 0.0949 µM): 5.41%
- viability, T/C (second compound 0.0949 µM, first compound 0.3 µM): 4.64%
- viability, T/C (second compound 0.0949 µM, first compound 0.949 µM): 4.96%
- viability, T/C (second compound 0.0949 µM, first compound 3 µM): 3.57%
- viability, T/C (second compound 0.3 µM, first compound 0.00949 µM): 5.26%
- viability, T/C (second compound 0.3 µM, first compound 0.03 µM): 5.21%
- viability, T/C (second compound 0.3 µM, first compound 0.0949 µM): 4.85%
- viability, T/C (second compound 0.3 µM, first compound 0.3 µM): 4.65%
- viability, T/C (second compound 0.3 µM, first compound 0.949 µM): 4.55%
- viability, T/C (second compound 0.3 µM, first compound 3 µM): 3.36%
